Tests used:
Human T-47D breast cells [1] = assay: T-47D cell proliferation, agonist format; assay type: cell-based; settings: T47D, 0.01 to 10 nM, maximum at any dose, read-out: Cell Proliferation Agonist maximum % Stim.
Method: (§1) Human T-47D breast cells grown in nutrient media were incubated with the standard progestin R5020 alone or with R5020 plus test compound and then assessed by standard procedures for proliferation using incorporation of [^3 H]-thymidine as the measurement. […] The maximum % inhibition (a measure of the efficacy of the compounds) is also given. In the agonist format of this assay the compounds were tested at concentrations ranging from 0.01 to 10 nM and the maximum % stimulation at any dose is listed in Table 2. […] However, the presence of a very polar hydroxyl group in the 17α-position greatly diminishes antiprogestational activity and this holds even when the OH is separated from the 17-carbon atom by a methylene group.

progestin receptor (hPR) = assay: progestin receptor binding; settings: cytosol from human T-47D breast cells; [3H]-R5020; read-out: Receptor Binding Affinity hPR IC50
Excerpt: However, the receptors were of human origin and a different radioligand was used. Thus, for progestin receptor binding the receptor was obtained in cytosol from human T-47D breast cells and [^3 H]-R5020 was used as the radioligand. Data are expressed as IC50 values, i.e., the concentration of compound that inhibits the radioligand binding by 50%.

immature female rabbits = assay: anti-estrogenic activity in vivo (uterine weight); set-up: species or system rabbit
Method: Steril. 52: 1055-1060 (1989). […] The weight of uteri from untreated immature rabbits was increased from 246±87 (S.E.) mg with no estradiol to 1402±104 mg with estradiol alone. Concurrent treatment of rabbits with estradiol and 10 mg/day of 17α-acetoxy-11β-(4-(N-piperidino)phenyl)-19-norpregna-4,9-diene-3,20-dione reduced the uterine weights to 998±98 mg. Likewise 17α-acetoxy-11β-(4-N-pyrrolidino)phenyl)-19-norpregna-4,9-diene-3,20-dione at 10 mg/day reduced the uterine weight to 919±115 mg, and 17α-acetoxy-11β-(1-methyl-5-indolyl)-19-norpregna-4,9-diene-3,20-dione reduced uterine weight to 956±115 mg at the same dose.

rabbits [2] = assay: McGinty test (agonist, test compound alone); assay type: in vivo, rabbit
Method: (§2) Progestational activity and antiprogestational activity were determined in rabbits by means of the McGinty test (test compound alone, procedure of McGinty et al., Endocrinology, 24:829-832 (1939)) or anti-McGinty test (test compound plus progesterone, procedure of Tamara et al., Jpn. J. Fertil. Steril. 24:48-81 (1979)). Results were scored according to McPhail (McPhail, J. Physiol., 83:146 (1934)).

[3] = test system: Ishikawa human endometrial adenocarcinoma cell line; assay: anti-estrogenic activity in Ishikawa cells (block of estrogen-stimulated alkaline phosphates activity); assay type: cell-based; settings: for anti-estrogenic activity in the Ishikawa cell assay: in words, concentration not given
Human T-47D breast cells [4] = assay: T-47D cell proliferation, antagonist format (inhibition of 0.15 nM R5020-mediated proliferation); assay type: cell-based; settings: T47D; for EC50: inhibition of 0.15 nM R5020-mediated proliferation, N.D. not detected; for Emax: maximum % inhibition, 0.15 nM R5020, read-out: Cell Proliferation Antagonist maximum % Inhib.
Method: as §1

immature male rats = assay: antiglucocorticoid activity in vivo (thymus weight); set-up: species or system rat
Method: The ability of the compounds to block the effects of dexamethasone (6 μg per day for 7 days) on thymus weight of immature male rats was assessed.

[5] = test system: immature New Zealand white rabbits; assay: anti-Clauberg assay for oral antiprogestational activity; assay type: in vivo, rabbit; settings: for ED50, anti-Clauberg assay: 5 days; for ED50, anti-Clauberg assay / effectiveness in inhibiting the endometrial response: with progesterone SC
Method: In this assay immature New Zealand white rabbits were primed with estrogen by treatment with estradiol for six days. They were then given progesterone subcutaneously (SC) and the test compound (orally) for 5 days. On the day following the treatment, the uteri were excised and examined histologically. The endometrial response was graded by the method of McPhail and the % inhibition was determined at each dose. Statistical analysis provides for an ED50 value.

rabbits [6] = assay: anti-McGinty test (antagonist, test compound plus progesterone); assay type: in vivo, rabbit; settings: in words
Method: as §2

[7] = test compound 10 mg/day oral + 5 μg estradiol per day

CC(=O)O[C@]1(C(C)=O)CC[C@H]2[C@@H]3CCC4=CC(=O)CCC4=C3[C@@H](c3ccc(N4CCCC4)cc3)C[C@@]21C [I 4-(N-pyrrolidino) H O H --O--CO--CH3 H, 17α-Acetoxy-11β-[4-(N-pyrrolidino)phenyl]-19-norpregna-4,9-diene-3-20-dione]
Emax (Human T-47D breast cells [1]): 1%
IC50 (progestin receptor (hPR)): 0.8 nM
uterine weight (immature female rabbits; [7]): 919 ± 115 mg
McPhail Index, McGinty Assay (Agonist) (rabbits [2]; dose 0.3 micrograms): 0 +/- 0
McPhail Index, McGinty Assay (Agonist) (rabbits [2]; dose 3 micrograms): 0 +/- 0
McPhail Index, McGinty Assay (Agonist) (rabbits [2]; dose 30 micrograms): 0 +/- 0
anti-estrogenic activity in the Ishikawa cell assay [3]: inactive
EC50 (Human T-47D breast cells [4]): 0.4 nM
Emax (Human T-47D breast cells [4]): 108%

C[C@@H]1C[C@H]2[C@@H]3CCC4=CC(=O)C=C[C@]4(C)[C@@]3(F)[C@@H](O)C[C@]2(C)[C@@]1(O)C(=O)CO [dexamethasone, reference compound]
thymus weight (immature male rats; 6 μg dexamethasone alone per day, 7 days): 65 ± 8 mg

CC(=O)O[C@]1(C(C)=O)CC[C@H]2[C@@H]3CCC4=CC(=O)CCC4=C3[C@@H](c3ccc(N4CCCCC4)cc3)C[C@@]21C [I 4-(N-piperidino) H O H --O--CO--CH3 H, 17α-Acetoxy-11β-[4-(N-piperidino)phenyl]-19-norpregna-4,9-diene-3,20-dione]
Emax (Human T-47D breast cells [1]): 0%
IC50 (progestin receptor (hPR)): 1.2 nM
uterine weight (immature female rabbits; [7]): 998 ± 98 mg
ED50, anti-Clauberg assay [5]: 0.9 mg/day
potency relative to mifepristone ([5]; more potent than mifepristone): about 5 fold
effectiveness in inhibiting the endometrial response [5]: 100%
McPhail Index, McGinty Assay (Agonist) (rabbits [2]; dose 0.3 micrograms): 0.1 +/- 0.1
McPhail Index, McGinty Assay (Agonist) (rabbits [2]; dose 3 micrograms): 0 +/- 0
McPhail Index, McGinty Assay (Agonist) (rabbits [2]; dose 30 micrograms): 0.2 +/- 0.1
anti-estrogenic activity in the Ishikawa assay ([3]; concentrations up to 10^-6 M): inactive
EC50 (Human T-47D breast cells [4]): 0.2 nM
Emax (Human T-47D breast cells [4]): 117%

C[C@]12CC[C@@H]3c4ccc(O)cc4CC[C@H]3[C@@H]1CC[C@@H]2O [estradiol, reference compound]
uterine weight (immature female rabbits; estradiol alone, 5 μg per day): 1402 ± 104 mg

CC#C[C@]1(O)CC[C@H]2[C@@H]3CCC4=CC(=O)CCC4=C3[C@@H](c3ccc(N(C)C)cc3)C[C@@]21C [mifepristone, reference compound]
ED50, anti-Clauberg assay [5]: 4.14 mg/day
effectiveness in inhibiting the endometrial response [5]: 67%

CC(=O)O[C@]1(C(C)=O)CC[C@H]2[C@@H]3CCC4=CC(=O)CCC4=C3[C@@H](c3ccc4c(ccn4C)c3)C[C@@]21C [I 1-methylindol-5-yl O H --O--CO--CH3 H, 17α-Acetoxy-11β-(1-methylindol-5-yl)-19-norpregna-4,9-diene-3,20-dione]
Emax (Human T-47D breast cells [1]): 17%
IC50 (progestin receptor (hPR)): 2.4 nM
uterine weight (immature female rabbits; [7]): 956 ± 115 mg
thymus weight (immature male rats; 6 μg dexamethasone + 1,000 μg test compound per day, 7 days): 105 ± 8 mg
antiglucocorticoid activity (immature male rats; 1000 μg per day, in words): little or no antiglucocorticoid activity in vivo
glucocorticoid activity (immature male rats; compound given alone, in words): Neither did it show significantglucocorticoid activity
thymus weight (immature male rats; test compound given alone): 270 ± 13 mg
McPhail Index, McGinty Assay (Agonist) (rabbits [2]; dose 0.3 micrograms): 0 +/- 0
McPhail Index, McGinty Assay (Agonist) (rabbits [2]; dose 3 micrograms): 0 +/- 0
McPhail Index, McGinty Assay (Agonist) (rabbits [2]; dose 30 micrograms): 0 +/- 0
anti-estrogenic activity in the Ishikawa cell assay [3]: inactive
EC50 (Human T-47D breast cells [4]): 0.7 nM
Emax (Human T-47D breast cells [4]): 110%

COc1ccc([C@H]2C[C@@]3(C)[C@@H](CC[C@]3(OC(C)=O)C(C)=O)[C@@H]3CCC4=CC(=O)CCC4=C32)cc1 [I 4-CH3 O H O H --O--CO--CH3 H, 17α-Acetoxy-11β-(4-methoxyphenyl)-19-norpregna-4,9-diene-3,20-dione]
Emax (Human T-47D breast cells [1]): 2%
IC50 (progestin receptor (hPR)): 0.8 nM
McPhail Index, McGinty Assay (Agonist) (rabbits [2]; dose 0.3 micrograms): 1.5 +/- 0.2
McPhail Index, McGinty Assay (Agonist) (rabbits [2]; dose 3 micrograms): 1.5 +/- 0.6
McPhail Index, McGinty Assay (Agonist) (rabbits [2]; dose 30 micrograms): 1.5 +/- 0.7
progestational activity, McGinty test (rabbits [2]; in words): both agonist and antagonist properties
EC50 (Human T-47D breast cells [4]): 0.3 nM
Emax (Human T-47D breast cells [4]): 119%
antiprogestational activity, anti-McGinty test (rabbits [6]): both agonist and antagonist properties

Reference: patent US6020328A, “20-keto-11β-arylsteroids and their derivatives having agonist or antagonist hormonal properties” (Research Triangle Institute, priority 1998, dated 2000)
